The target of test [1] is T1, TDG (Homo sapiens, UniProt Q13569). Put plainly: Inhibition of TDG mismatch repair activity (fluorescent G·U double-stranded DNA probe T1-T2). The following applies: TDG 100 nM/L, preincubated with compound 37° C. 30 minutes; probe 30 nM; read-out: Inhibitory activity on TDG mismatch repair IC50. The class given is biochemical. An excerpt: 14.1 Experimental Determination of Compound's Inhibitory Rate on TDG Mismatch Repair Activity
(1) A double-stranded DNA probe T1-T2 containing uracil bases was synthesized. The nucleotide sequence of the T1 chain was: 5′-FAM-TAAUGTGAATGGAGCTGAAAT-biotin-3′; The nucleotide sequence of the T2 chain was 5′-ATTTCAGCTCCATTCACGTTA-3′. Using PCR annealing program, the T1 strand and T2 strand were complementary to form a double-stranded DNA probe T1-T2.
(2) The reaction system and steps for each well of a 96-well plate were as follows: a. TDG (100 nM/L) was mixed with different concentrations of compounds, and the mixture was incubated at 37° C. for 30 minutes. The composition of the reaction buffer was: 20 mM HEPES pH7.5, 100 mM NaCl, 0.2 mM EDTA, 2.5 mM MgCl2; b. The double-stranded DNA probe T1-T2 was added to the mixture to obtain a final volume of 100 μL, with a concentration of 30 nM, and the mixture was incubated at 25° C. for 30 min; c. 1 μL of streptavidin magnetic beads were added to the reaction solution and fully bound the biotin-labeled DNA for 1 hour; d. NaOH was added to the reaction solution to a final concentration of 200 mM, and the mixture was incubated at room temperature for 30 minutes; e. Under the action of a magnetic stand the streptavidin magnetic beads were adsorbed to the tube wall, the supernatant was transferred to a new 96-well plate, and placed in a Tecan microplate reader for fluorescence measurement. The parameter settings were: excitation wavelength 485 nm; emission wavelength 520 nm. A linear curve between fluorescence intensity and TDG concentration was constructed, R^2=0.9968, and the linear range was 0-50 nM/L;
According to the biological method described in this example, the selected compounds of the present invention were analyzed, and the results are shown in Table 1. Among them, “++” in Table 1 refers to the inhibitory activity for TDG mismatch repair with IC50≤5 μM; “+” refers to the inhibitory activity for TDG mismatch repair with IC50>5 μM.

Test [2] addresses T1, TDG. Put plainly: TDG inhibitory activity of compounds in cells (caC-cmv-firefly luciferase reporter, HEK 293T TDG KO cells transfected with pCDNA4-TDG). The class given is cell-based. To be noted: read-out: Inhibition rate on TDG activity. On the procedure: Experimental Determination of TDG Inhibitory Activity of Compounds in Cells
The operation steps of this example are as follows:
(1) Preparation of Methylation Reporter Plasmid:
(a) SAM with a stock solution concentration of 32 mM was diluted with ultrapure water to 1600 μM;
(b) The reaction system was prepared according to the following ratio: 30 μl ultrapure water, 5 μl 10×NEBuffer 2, 5 μl diluted SAM, 1 μg pCpGL-CMV-firefly plasmid, 1 μl SssI methylase (4 U/μl); 50 μl in total, the reaction was carried out at 37° C. for 2 hours;
(c) The mixture was heated at 65° C. for 20 minutes. Then 0.2% SDS was added, the reaction was carried out at 80° C. for 10 min; and then 1 μl Proteinase K was added, the reaction was carried out at 50° C. for 1 h;
(d) The methylated plasmid was recovered with Dr. GenTLE® sedimentation aid (TAKARA).
(2) Preparation of 5fC/5caC pCpGL-CMV-Firefly Reporter Plasmid
(a) The following 10× reaction system was prepared:
(b) The reaction system was prepared according to the following ratio:
(c) The reaction was carried out at 37° C. for one hour;
(d) 24 μg Tet1 protein was added for the second time and the reaction was continued for one hour;
(e) SDS was added to a final concentration of 0.5%, 80° C., 10 minutes, then 1 μl Proteinase K was added, 55° C. overnight.
(f) The treated caC-cmv-firefly plasmid was recovered with Dr. GenTLE® sedimentation aid (TAKARA) and was quantified.
(3) Using the Luciferase Activity Assay Method to Detect the Inhibitory Rate of Small Molecule Compounds on Intracellular TDG Enzyme Activity
In a 96-well plate, the reaction system and operation flow of each well were as follows:
(a) 1 ng caC-cmv-firefly, Ing pCpGL-CMV-Relina and 150 ng pCDNA4-TDG or 150 ng pCDNA4-myc plasmid, were diluted to 75 ul Opti-MEM, mixed well and allowed to stand still for 5 minutes;
(b) 2 ul transfection reagent (Hieff Trans™ Liposomal transfection Reagent (0.5 ul/well, YEAEEN, Cat #40802)) was diluted in 100 ul Opti-MEM, mixed well and allowed to stand still for 5 minutes;
(c) 75 ul of (a) and (b) were mixed respectively, and allowed to stand still at room temperature for 20 minutes;
(d) HEK 293T TDG KO cells were digested with trypsin, the cells were collected and counted, and the suspension cell concentration was adjusted to 4×10^5/ml;
(e) 50 ul of the mixture (c) was added to each well, and at the same time 100 ul of the diluted cell suspension was added to the same well, and they were mixed well.
(f) After the cells adhering to the wall, different concentrations of small molecule compounds to be tested were added to each well.
(g) Incubation was performed in a 37° C. CO2 incubator for 72 hours. The supernatant was removed and the cells were quickly freezed at −80° C.
(h) Before detecting the luciferase activity, the cells to be tested were removed from −80° C. and allowed to stand still at room temperature for 30 minutes. Following the instructions of Dual-Glo® Luciferase Reagent (PROMEGA), the firefly fluorescence value and Renilla fluorescence value of each well were detected.
(i) The firefly fluorescence value was divided with the Renilla fluorescence value of each well; 96-well plate Z′ and experimental window was calculated by the ratio of transfected caC-cmv-firefly, pCpGL-CMV-Relina, pCDNA4-TDG plasmid mixture plus DMSO experimental group to transfected caC-cmv-firefly, pCpGL-CMV-Relina, pCDNA4-myc plasmid mixture plus DMSO experimental group, and the relative enzyme activity inhibition rate of each compound was calculated.
According to the biological method described in this example, the selected compounds of the present invention were analyzed, and the results are shown in Table 2. Among them, “+” in Table 2 refers to the compound's TDG inhibitory activity at a concentration of 10 μM≤25%; “++” refers to the compound's TDG inhibitory activity at a concentration of 10 μM>25%.

Test [3] deals with Lung cancer cell line Calu-1. Description: Inhibition of the growth of Calu-1 cells (CellTiter-Glo, 72 hours). The class given is cell-based. To be noted: Homo sapiens, 72 hours of culturing, read-out: Inhibitory activity on alu-1 cell growth IC50. On the procedure: 14.2 Experimental Determination of Compound's Inhibitory Rate on the Growth of Calu-1 Cells
Lung cancer cell line Calu-1 was cultured in 90% McCoy's 5A medium (BI, 01-075-1ACS)+10% fetal bovine serum (Gibco, 10270106), placed in a CO2 incubator (37° C., 5% CO2, 95% air) for culturing. Calu-1 cells were digested with trypsin (Gibco, 12604-021) and seeded in a 384-well plate at a density of 500 cells per well. The medium was 50 μL and it was cultured overnight at 37° C. in an incubator. On the next day, different concentrations of test compounds were added, and the final concentration of DMSO was 0.1%. After 72 hours of culturing, the cells were taken out for test. The cell culture medium from the 384-well plate to be tested was removed, and fresh culture medium premixed with CTG was immediately added: the ratio of the culture medium to CellTiter-Glo® 2.0 reagent (Promega, G9243) was 2:1, 30 ul was added to each well. The plate was shaken at room temperature for 20 minutes, and then a multi-function plate reader (TECAN, Infinite 200 Pro) was used according to the reagent instructions to determine the cell survival.
According to the biological method described in this example, the selected compounds of the present invention were analyzed, and the results are shown in Table 1. Among them, “++” in Table 1 refers to the inhibitory activity on the growth of calu-1 cells with IC50≤5 μM; “+” refers to the inhibitory activity on the growth of calu-1 cells with IC50>5 μM.

12 molecules from patent publication US20220213070A1, “COMPOUNDS INHIBITING TDG ACTIVITY” (EPITAS BIOSCIENCES (SHANGHAI) CO., LTD., priority 2019, published 2022) can be followed below.

T1 sequence (Q13569 whole entry): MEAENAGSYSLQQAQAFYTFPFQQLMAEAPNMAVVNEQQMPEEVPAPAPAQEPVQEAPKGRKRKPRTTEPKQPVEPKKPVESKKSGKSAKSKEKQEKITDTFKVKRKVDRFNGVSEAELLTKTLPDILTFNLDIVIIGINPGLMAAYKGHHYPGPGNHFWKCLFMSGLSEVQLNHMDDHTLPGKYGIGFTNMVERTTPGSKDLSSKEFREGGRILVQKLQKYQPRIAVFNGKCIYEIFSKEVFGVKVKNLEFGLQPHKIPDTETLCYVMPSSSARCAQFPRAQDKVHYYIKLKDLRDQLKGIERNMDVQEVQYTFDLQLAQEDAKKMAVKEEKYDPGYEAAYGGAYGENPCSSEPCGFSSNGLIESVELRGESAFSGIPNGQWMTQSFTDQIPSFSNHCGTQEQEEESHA

Regarding `O=C(CCN1CCCc2ccccc21)c1ccc2c(c1)OCCO2` [Compound 14, 1-(2,3-dihydrobenzo[b][1,4]dioxin-6-yl)-3-(3,4-dihydrouinoline-1(2H)-yl)propan-1-one], the IC50 (at TDG [1]; in test [3]) was greater than 5 µM each time. Also, the inhibition at 10 µM at TDG [2] was less than 25%.
`Nc1ccc2c(c1)CN(CCC(=O)c1ccc3c(c1)OCCO3)C2` [Compound 9, 3-(5-aminoisoindolin-2-yl)-1-(2,3-dihydrobenzo[b][1,4]dioxin-6-yl)propan-1-one]: the IC50 (at TDG [1]; in test [3]) was no more than 5 µM in each case. For the same molecule, the inhibition at 10 µM at TDG [2] was greater than 25%.
For `O=C(CCN1CCc2ccccc2C(O)(c2ccc(F)cc2)C1)c1ccc2c(c1)OCCO2` (centres unmarked) [Compound 53, 1-(2,3-dihydrobenzo[b][1,4]dioxin-6-yl)-3-(1-(4-fluorophenyl)-1-hydroxy-1,2,4,5-tetrahydro-3H-benzo[d]azepine-3-yl)propan-1-one], the IC50 (at TDG [1]; in test [3]) was no more than 5 µM in each case. Also, the inhibition at 10 µM on TDG [2] was less than 25%.
Regarding `O=C(CCN1CCc2ccccc21)c1ccc2c(c1)OCCO2` [Compound 11, 1-(2,3-dihydrobenzo[b][1,4]dioxin-6-yl)-3-(indoline-1-yl)propan-1-one], the IC50 (on TDG [1]; in test [3]) was greater than 5 µM each time. For the same molecule, the inhibition at 10 µM at TDG [2] was less than 25%.
Take `O=C(CCn1ncc2ccncc21)c1ccc2c(c1)OCCO2` [Compound 25, 1-(2,3-dihydrobenzo[b][1,4]dioxin-6-yl)-3-(1H-pyrazolo[3,4-c]pyridine-1-yl)propan-1-one]: the half-inhibitory concentration (IC50) (at TDG [1]; in test [3]) was greater than 5 µM in each case. Moreover, on TDG [2], the inhibition at 10 µM was less than 25%.
Turning to `COc1ccc(C(=O)CCN2Cc3ccccc3C2)cc1OC` [Compound 38, 1-(3,4-dimethoxyphenyl)-3-(isoindolin-2-yl)propan-1-one], the IC50 (at TDG [1]; in test [3]) was greater than 5 µM throughout. The inhibition at 10 µM at TDG [2] was greater than 25%.
As for `O=C(CCN1CCC(=O)c2ccccc21)c1ccc2c(c1)OCCO2` [Compound 27, 1-(3-(2,3-dihydrobenzo[b][1,4]dioxin-6-yl)-3-oxopropyl)-2,3-dihydroquinoline-4(1H)-one], the IC50 (at TDG [1]; in test [3]) was greater than 5 µM in each case. Also, the inhibition at 10 µM on TDG [2] was less than 25%.
`O=C(CCN1CCC(c2ccc([N+](=O)[O-])cc2)C1)c1ccc2c(c1)OCCO2` (centres unmarked) [Compound 46, 1-(2,3-dihydrobenzo[b][1,4]dioxin-6-yl)-3-(3-(4-nitrophenyl)pyrrolidin-1-yl)propan-1-one]: the concentration for half-maximal inhibition (IC50) (at TDG [1]; in test [3]) was no more than 5 µM throughout. Further, on TDG [2], the inhibition at 10 µM is less than 25%.
For the molecule `O=C(CCN1CCC(c2ccc(Br)cc2)C1)c1ccc2c(c1)OCCO2` (centres unmarked) [Compound 47, 3-(3-(4-bromophenyl)pyrrolidin-1-yl)-1-(2,3-dihydrobenzo[b][1,4]dioxin-6-yl)propan-1-one], the IC50 (on TDG [1]; in test [3]) was no more than 5 µM in each case. In addition, the inhibition at 10 µM on TDG [2] is less than 25%.
On to `O=C(CCN1CCC(O)(c2ccccc2)C1)c1ccc2c(c1)OCCO2` (centres unmarked) [Compound 44, 1-(2,3-dihydrobenzo[b][1,4]dioxin-6-yl)-3-(3-hydroxy-3-phenylpyrrolidin-1-yl)propan-1-one], for which the IC50 at TDG [1] was greater than 5 µM; in test [3], no more than 5 µM. For the same molecule, the inhibition at 10 µM at TDG [2] was less than 25%.
Taken in the same sequence, the figures for `O=C(CCNc1ccc2cnccc2c1)c1ccc2c(c1)OCCO2` [Compound 20, 1-(2,3-dihydrobenzo[b][1,4]dioxin-6-yl)-3-(isoquinolin-6-ylamino)propan-1-one] were greater than 5 µM, greater than 5 µM and less than 25%.
`Cc1ccc(C2CCN(CCC(=O)c3ccc4c(c3)OCCO4)C2)cc1` (centres unmarked) [Compound 48, 1-(2,3-dihydrobenzo[b][1,4]dioxin-6-yl)-3-(3-(p-tolyl)pyrrolidin-1-yl)propan-1-one]: the IC50 (at TDG [1]; in test [3]) was no more than 5 µM each time.
